Data from patent publication US20060008541A1, “Sodium channel agonist” (BIZMEDIC CO., LTD., priority 2004, published 2006).
Several values for one entry are separate records, joined by “and”; a condition that tells them apart may be missing. Equal entries are not always repeated. Entries after “also recorded” stand apart in the source; their conditions may differ.

What was measured:
[1] = target: cardiac INa (Homo sapiens, UniProt Q14524); conditions: cited from earlier work
[2] = target: L-type calcium current (Homo sapiens, UniProt Q13936); conditions: cited from earlier work
[3] = system: inward rectifier K+ current; conditions: cited from earlier work
[4] = system: rat ventricular myocytes; assay: Action potentials in isolated rat ventricular myocytes, whole-cell current clamp
Method: Ventricular myocytes were isolated from the hearts of 3-week or 6 to 7- week-old Sprague-Dawley rats of either sex. Rats were anaesthetized with pentobarbitone sodium (i.p. 200 mg kg^−1). Isolated hearts were mounted on a Langendorff perfusion apparatus, washed at 37° C. for 5 min with a modified Tyrode solution containing (mM): 143 NaCl, 5.4 KCl, 5 HEPES, 0.5 MgCl2, 0.5 NaH2PO4, 1.8 CaCl2, 10 glucose, adjusted pH to 7.4 with NaOH, and then perfused with Ca^2+-free Tyrode solution for 5 min. After the hearts had stopped beating, Ca^2+-free Tyrode solution containing collagenase (0.5 mg ml^−1, Type II, Worthington) was perfused for 30 min. Finally, this enzyme containing solution was washed out for 5 min with a high K^+, low Cl^−KB solution containing (in mM): 70 K-glutamate, 55 KCl, 10 HEPES, 3 MgCl2, 20 taurine, 20 KH2PO4, 0.5 K-EGTA adjusted pH to 7.3 with KOH. A portion of the left ventricle was then dissected out and gently stirred with a forceps in KB solution. The isolated ventricular myocytes were kept in KB solution at 5° C. before use.
Patch pipettes (1˜2 MΩ when filled with experimental solutions) were pulled from borosilicate glass capillaries (Harvard Apparatus Ltd, UK). Conventional whole-cell patch clamp technique was used to record membrane current or voltage from single ventricular myocytes. In current-clamp mode, action potentials were evoked by a brief supra-threshold current pulse. In voltage clamp mode, access resistance was monitored throughout the experiment, and data were accepted only when the access resistance was kept below 6 MΩ. Filtered signals (10 KHz) from a patch clamp amplifier (Biologic RK 300, France), were fed into AD/DA converter (PCI-MIO-16E-4, National Instrument, USA), digitized at 20 KHz, and stored in PC for later analysis. The flow rate of the perfusion solution was 0.5˜1 ml min^−1. All electrophysiological experiments were performed at room temperature (23˜25° C.). The statistical results in the text and in figures were presented as means ±S.E.M. (n=number of cells studied). Statistical significance was accepted for p value <0.05.
APs were evoked by applying 50-70 pA depolarising current pulses (5 ms in duration) every 500 ms through a patch pipette in current clamp mode with a whole-cell configuration. The effects of dmLSB on APD were quantified in terms of APD90; defined as the APD measured at the voltage at which repolarization process is 90% complete. Time-profile of the change in APD90 values averaging from five sequential APs selected every 12 seconds was plotted in FIG. 2A as a function of whole-cell recording time.
Experimental methods for electrophysiology (recording currents and action potentials) are the same as described above for dmLSB.

[5] = system: inward rectifier K+ currents and delayed rectifier K+ currents; assay: K+ currents in rat ventricular myocytes, voltage clamp with K+-rich pipette solution; format: cell-based; conditions: 10 μM dmLSB; I950ms
Method: (§1) Statistical significance was accepted for p value <0.05.
The K-rich pipette solution containing (in mM): 90 K-aspartate, 30 KCl, 2 MgCl2, 5 Mg-ATP, 10 HEPES, 5 K-EGTA, 5 diTris-creatine phosphate, 2.5 Na2-creatine phosphate was used. Cs-aspartate internal solution contained (in mM): 90 Cs-aspartate, 20 CsCl, 2 MgCl2, 5 Mg-ATP, 10 HEPES, 2.5 Na2-creatine phosphate, 10 tetraethyl-ammonium chloride (TEA-Cl), 5 Cs-EGTA with pH adjusted to 7.3 using CsOH. When Cs-aspartate internal solution was used in combination with normal Tyrode (NT) bathing solution, the holding current level was inward at −80 mV, probably due to K^+ influx via inward rectifier K channels. To prevent this inward holding current, KCl in the NT solution was substituted with equimolar CsCl.
To elucidate the mechanism underlying APD change by dmLSB, voltage-clamp experiments were performed and the effects of dmLSB on the ionic currents in rat ventricular myocytes were investigated. Membrane currents were recorded in a voltage clamp mode using a patch pipette containing a K^+-rich (140 mM) internal solution. […]
However, initial amplitudes measured at 20 ms (I20ms) in the presence of dmLSB differed from those measured under control conditions, and the I-V relationship deviated inwardly by dmLSB. […]

[6] = target: L-type Ca2+ current (ICa,L) (Rattus norvegicus, UniProt P22002); format: cell-based; conditions: 10 μM dmLSB
[7] = target: Na+ current (INa) (Rattus norvegicus, UniProt P15389); assay: Na+ current (INa) in rat ventricular myocytes, whole-cell voltage clamp; format: cell-based; design: endogenous in cells; host or cells: freshly isolated rat (Sprague-Dawley) left ventricular myocytes
Source text: as §1
As sodium current (INa) in ventricular myocytes is so fast and large that membrane potential is prone to escape from the command voltage, it is necessary to reduce INa for a quantitative analysis. For this purpose, small ventricular myocytes isolated from young (3-weeks-old) rats were used, and currents recorded in a modified Cs^+-based low Na^+ bath solution (Yuill et al., 2000) which contained (in mM): 130 CsCl, 10 NaCl, 2.5 MgCl2, 0.5 CaCl2, 20 HEPES, 11 glucose, in experiments shown in FIG. 5. It was reported that the kinetics of INa in the standard solution (145 mM Na^+) and in Cs-based solution (10 mM Na^+) were similar.
To examine the effect of dmLSB on inward currents, a Cs^+-rich pipette solution containing 10 mM EGTA was used. To distinguish L-type Ca^2+ currents (ICa,L) from Na^+ currents (INa), a two-step pulse protocol was used (inset of FIG. 4A). […] Although the peak amplitude of INa was unaffected by dmLSB, significant broadening of inactivation phase was observed.
To avoid the problem of voltage escape and to investigate the effects of dmLSB on INa in a quantitative manner, INa was recorded in low external [Na^+] (10 mM). It is well known that the steady-state inactivation shifted spontaneously during whole-cell mode recording. To activate INa from the potential at which inactivation is fully recovered, depolarising test pulses were applied following a 500 ms pre-pulse to −120 mV. To eliminate the contamination of ICa,L and to isolate pure INa, current response to the same test pulse from holding potential (Vh) of −40 mV, which was regarded as ICa,L, was subtracted from that from Vh of −120 mV.
Pre-pulses of 500 ms duration at variable potentials (from −150 to −15 mV in 15 mV steps) preceded a 50 ms test pulse to −20 mV. The superimposed current responses to the test pulse (−20 mV) are shown in FIG. 6A (left, control; right, 20 μM dmLSB). […] The peak amplitudes of INa are plotted against pre-pulse voltages in FIG. 6B. […] The voltages for half inactivation were −75.7±0.61 mV (n=28) in control and −77.8±1.05 mV (n=32) in the presence of dmLSB (t-test, p>0.05).
Since dmLSB specifically affected the slow phase of inactivation, the difference current represented the slow inactivating INa (ISlow) induced by dmLSB. To quantify the magnitude of the effect of dmLSB on INa, the relative amplitude of ISlow to the peak INa was plotted.
Since dmLSB is lipophilic, it is possible that it permeates the plasma membrane and binds to intracellular receptors or to Na channel protein itself. It is not clear whether its effects were mediated via a cell surface binding site, an intracellular site, or both. To test this possibility, a ventricular myocyte was perfused intracellularly with the patch pipette solution containing 20 μM dmLSB, and INa was monitored while patch pipette solution diffused-in. Meanwhile, the series resistance (RS) was kept below 7 MΩ. As soon as the whole-cell patch was established, INa was recorded at a test potential of −20 mV, and this current trace was subtracted from subsequent INa records. The amplitudes of the subtracted currents were plotted as a function of whole-cell recording time (WCR time; FIG. 8A). […] No change in the inactivation kinetics of INa was observed until dmLSB was applied externally. When 5 μM dmLSB was bath-applied at ca 13 min of WCR time to the same cell, ISlow appeared, indicative of the dmLSB effect.

[8] = mean value, during dmLSB superfusion, n=7

Chain of cardiac INa (Q14524 whole entry): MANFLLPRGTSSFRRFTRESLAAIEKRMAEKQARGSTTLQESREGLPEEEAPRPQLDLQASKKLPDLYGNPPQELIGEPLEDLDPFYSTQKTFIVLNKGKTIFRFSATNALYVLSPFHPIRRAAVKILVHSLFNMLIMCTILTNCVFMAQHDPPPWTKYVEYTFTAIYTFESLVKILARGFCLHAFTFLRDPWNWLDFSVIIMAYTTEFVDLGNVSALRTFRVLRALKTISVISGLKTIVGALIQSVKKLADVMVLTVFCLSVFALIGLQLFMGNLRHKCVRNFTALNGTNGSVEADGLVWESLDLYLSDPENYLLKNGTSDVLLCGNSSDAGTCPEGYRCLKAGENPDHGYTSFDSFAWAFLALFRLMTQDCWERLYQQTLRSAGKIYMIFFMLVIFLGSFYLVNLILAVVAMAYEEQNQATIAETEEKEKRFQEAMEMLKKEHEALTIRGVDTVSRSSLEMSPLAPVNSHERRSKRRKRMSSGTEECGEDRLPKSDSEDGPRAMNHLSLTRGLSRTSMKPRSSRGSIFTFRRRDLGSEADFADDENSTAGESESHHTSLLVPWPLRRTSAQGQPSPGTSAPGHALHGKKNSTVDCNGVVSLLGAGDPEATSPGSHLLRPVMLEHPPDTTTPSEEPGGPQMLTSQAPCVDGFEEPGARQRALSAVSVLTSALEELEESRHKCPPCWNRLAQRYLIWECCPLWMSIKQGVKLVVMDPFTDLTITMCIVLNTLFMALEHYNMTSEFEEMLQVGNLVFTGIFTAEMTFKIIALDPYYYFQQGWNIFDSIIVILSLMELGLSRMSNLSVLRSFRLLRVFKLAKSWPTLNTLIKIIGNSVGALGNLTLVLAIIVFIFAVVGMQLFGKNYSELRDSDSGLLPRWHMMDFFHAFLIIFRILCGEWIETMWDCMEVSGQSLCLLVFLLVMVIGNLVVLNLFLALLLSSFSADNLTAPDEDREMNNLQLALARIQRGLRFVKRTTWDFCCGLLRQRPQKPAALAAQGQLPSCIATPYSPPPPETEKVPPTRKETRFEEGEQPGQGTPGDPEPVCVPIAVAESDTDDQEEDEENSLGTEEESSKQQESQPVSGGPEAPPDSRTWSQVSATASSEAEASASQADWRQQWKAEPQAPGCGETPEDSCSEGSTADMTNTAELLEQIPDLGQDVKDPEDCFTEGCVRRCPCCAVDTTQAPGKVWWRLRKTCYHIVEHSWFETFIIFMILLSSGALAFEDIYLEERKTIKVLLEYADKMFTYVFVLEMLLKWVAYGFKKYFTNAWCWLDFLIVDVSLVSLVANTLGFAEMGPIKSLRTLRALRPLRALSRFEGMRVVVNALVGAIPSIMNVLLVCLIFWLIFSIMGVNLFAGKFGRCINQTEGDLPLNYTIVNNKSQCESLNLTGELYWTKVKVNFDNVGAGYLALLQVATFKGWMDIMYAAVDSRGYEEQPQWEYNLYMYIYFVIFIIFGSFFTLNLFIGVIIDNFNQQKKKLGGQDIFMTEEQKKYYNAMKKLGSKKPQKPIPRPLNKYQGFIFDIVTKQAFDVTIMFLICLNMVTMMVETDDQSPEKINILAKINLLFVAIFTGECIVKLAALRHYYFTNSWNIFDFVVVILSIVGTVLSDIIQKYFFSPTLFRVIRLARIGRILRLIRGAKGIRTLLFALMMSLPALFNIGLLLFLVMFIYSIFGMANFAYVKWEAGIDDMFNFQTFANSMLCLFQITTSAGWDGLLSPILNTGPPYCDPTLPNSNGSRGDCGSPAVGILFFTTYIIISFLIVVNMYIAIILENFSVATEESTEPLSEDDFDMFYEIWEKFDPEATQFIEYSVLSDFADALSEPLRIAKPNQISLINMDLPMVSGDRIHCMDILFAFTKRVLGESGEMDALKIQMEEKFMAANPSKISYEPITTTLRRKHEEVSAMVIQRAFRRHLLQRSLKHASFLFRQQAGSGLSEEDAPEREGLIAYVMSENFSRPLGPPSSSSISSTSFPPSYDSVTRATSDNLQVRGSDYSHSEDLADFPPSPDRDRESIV
Chain of Na+ current (INa) (P15389 whole entry): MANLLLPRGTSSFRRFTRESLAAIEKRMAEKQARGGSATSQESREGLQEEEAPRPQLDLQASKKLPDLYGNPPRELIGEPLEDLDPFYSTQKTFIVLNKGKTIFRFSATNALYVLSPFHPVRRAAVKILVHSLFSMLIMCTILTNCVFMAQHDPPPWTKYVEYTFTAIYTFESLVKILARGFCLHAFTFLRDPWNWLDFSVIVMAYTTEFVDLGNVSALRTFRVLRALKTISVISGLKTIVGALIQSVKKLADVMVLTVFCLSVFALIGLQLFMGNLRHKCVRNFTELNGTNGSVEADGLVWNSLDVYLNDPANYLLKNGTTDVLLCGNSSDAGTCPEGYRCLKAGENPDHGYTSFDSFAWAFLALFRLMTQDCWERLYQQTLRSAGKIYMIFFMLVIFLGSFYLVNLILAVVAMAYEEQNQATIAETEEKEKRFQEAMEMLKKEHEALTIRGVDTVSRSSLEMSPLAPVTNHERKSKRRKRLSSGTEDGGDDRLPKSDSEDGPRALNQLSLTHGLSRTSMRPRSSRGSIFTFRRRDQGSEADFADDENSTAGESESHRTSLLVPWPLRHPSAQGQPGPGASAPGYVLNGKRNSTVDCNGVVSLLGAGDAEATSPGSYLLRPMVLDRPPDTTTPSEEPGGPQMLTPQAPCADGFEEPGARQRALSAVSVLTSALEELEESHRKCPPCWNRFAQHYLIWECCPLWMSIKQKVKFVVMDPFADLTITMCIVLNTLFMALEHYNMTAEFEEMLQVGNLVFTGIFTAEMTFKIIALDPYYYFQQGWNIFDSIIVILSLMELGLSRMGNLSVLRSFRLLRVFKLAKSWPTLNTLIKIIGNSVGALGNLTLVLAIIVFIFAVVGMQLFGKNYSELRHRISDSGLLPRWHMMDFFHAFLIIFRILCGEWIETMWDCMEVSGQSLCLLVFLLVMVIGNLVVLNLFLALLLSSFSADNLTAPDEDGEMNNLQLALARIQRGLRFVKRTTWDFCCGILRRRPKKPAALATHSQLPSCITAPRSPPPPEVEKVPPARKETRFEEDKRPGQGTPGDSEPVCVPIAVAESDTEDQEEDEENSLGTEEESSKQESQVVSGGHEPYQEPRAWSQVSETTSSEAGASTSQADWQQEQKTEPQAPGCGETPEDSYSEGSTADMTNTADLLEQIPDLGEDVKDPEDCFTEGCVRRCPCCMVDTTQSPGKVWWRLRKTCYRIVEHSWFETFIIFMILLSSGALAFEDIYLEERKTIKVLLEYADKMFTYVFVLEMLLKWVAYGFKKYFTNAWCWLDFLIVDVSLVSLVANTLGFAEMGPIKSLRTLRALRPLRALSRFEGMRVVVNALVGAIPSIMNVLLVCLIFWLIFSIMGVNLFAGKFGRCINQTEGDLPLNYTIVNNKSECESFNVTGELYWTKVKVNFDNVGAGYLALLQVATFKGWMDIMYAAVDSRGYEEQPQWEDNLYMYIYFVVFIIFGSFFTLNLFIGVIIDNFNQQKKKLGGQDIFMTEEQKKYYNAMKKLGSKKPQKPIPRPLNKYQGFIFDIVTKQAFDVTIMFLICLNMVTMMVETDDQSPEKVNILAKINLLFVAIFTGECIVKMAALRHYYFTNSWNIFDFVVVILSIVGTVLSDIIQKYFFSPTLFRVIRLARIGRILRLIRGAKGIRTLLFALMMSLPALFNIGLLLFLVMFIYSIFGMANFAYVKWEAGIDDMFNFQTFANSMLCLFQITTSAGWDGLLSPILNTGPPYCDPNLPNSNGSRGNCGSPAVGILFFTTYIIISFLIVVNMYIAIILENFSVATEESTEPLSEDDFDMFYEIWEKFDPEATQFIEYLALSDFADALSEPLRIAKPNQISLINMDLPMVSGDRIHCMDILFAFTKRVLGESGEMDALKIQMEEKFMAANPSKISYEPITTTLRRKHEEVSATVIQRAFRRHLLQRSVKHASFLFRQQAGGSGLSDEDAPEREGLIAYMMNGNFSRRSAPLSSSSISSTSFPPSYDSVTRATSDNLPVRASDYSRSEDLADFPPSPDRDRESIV

What does the source list for `N#Cc1cc2c(OCC(O)COC3CN(C(c4ccccc4)c4ccccc4)C3)cccc2[nH]1` (stereo not shown) [BDF 9148]?
persistent INa (literature) [1]: induce a persistent INa; calcium current (literature) [2]: inhibit; inward rectifier K+ current (literature) [3]: inhibit

Which “persistent INa (literature)” value [1] does the source give for `N#Cc1cc2c(OCC(O)CN3CCN(C(c4ccccc4)c4ccccc4)CC3)cccc2[nH]1` (stereo not shown) [DPI 201-106] here?
Its value is “induce a persistent INa”.

What about the “calcium current (literature)” value [2] of the same compound?
The value was “inhibit”.

What about the “inward rectifier K+ current (literature)” value [3] of the same compound?
The value was “inhibit”.

For `Cc1oc2ccccc2c1Cc1cc(I)c(OCC(=O)O)c(I)c1` [KB130015, 2-Methyl-3-(3,5-diiodo-4-carboxymethoxybenzyl)benzofuran], which “INa inactivation (literature)” value [1] is on record?
Its value is “slowed INa inactivation”.

And the “persistent INa (literature)” value [1]?
Its value is “without developing persistent INa”.

And the “calcium current (literature)” value [2]?
Its value is “reduces ICa”.

For `O=C(/C=C/c1ccc(O)c2c1C(C(=O)OC(Cc1ccc(O)c(O)c1)C(=O)O)C(c1ccc(O)c(O)c1)O2)OC(Cc1ccc(O)c(O)c1)C(=O)O` (stereo not shown) [LSB, lithospermate B, reference compound], which electrophysiological effect [4] is on record?
The electrophysiological effect was “negligible electrophysiological effect; also recorded: no effect on cardiac action potential”.

For `COC(=O)[C@@H](Cc1ccc(O)c(O)c1)OC(=O)/C=C/c1ccc(O)c2c1[C@H](C(=O)O[C@H](Cc1ccc(O)c(O)c1)C(=O)OC)[C@@H](c1ccc(O)c(O)c1)O2` [dmLSB, dimethyl lithospermate B], which “Action potential duration (APD90)” value ([4]; 20 μM dmLSB, control 58.8±12.1 ms, n=7) is on record?
The value was 202.3 ± 9.5 ms.

And the “early after-depolarisation (EAD)” value ([4]; during prolonged plateau phase of AP)?
The value was “no early after-depolarisation was observed; also recorded: not associated with the generation of EAD; also recorded: no EAD observed”.

And the “effect on AP duration (APD)” value ([4]; isolated rat ventricular myocytes)?
The value was “increases the APD”.

What about the overshoot potential [4, 8] of the same compound?
The overshoot potential was 53.53±8.8 mV.

And the “resting membrane potential (RMP)” value [4, 8]?
The value was −68.46±2.6 mV.

And the “concentration at which APD prolongation was maximal” value ([4]; tested up to 100 μM)?
The value was 20 µM.

And the “effect on K+ currents” value [5]?
Its value is “no noticeable effect; also recorded: no significant difference”.

And the “effect on Ca2+ currents (ICa,L)” value [6]?
The value was “no noticeable effect; also recorded: hardly affected; also recorded: No significant difference”.

What about the INa inactivation kinetics [7] of the same compound?
The INa inactivation kinetics was “slowed the inactivation kinetics”.

And the “steady-state (s-s) inactivation of INa” value [7]?
The value was “not affected; also recorded: no effect on the steady-state inactivation”.

What about the “peak amplitude of INa” value ([7]; 10 μM dmLSB) of the same compound?
The value was “unaffected; also recorded: decreased slightly”.

And the “time within which INa inactivation was completed” value ([7]; 10 μM dmLSB, −20 mV)?
The value was no more than 50 ms.

And the “effect of intracellular application on INa” value ([7]; 20 μM dmLSB in pipette solution, n=4)?
The value was “essentially no effect on INa”.

What about the “V1/2 of steady-state inactivation fit” value ([7]; 20 μM dmLSB, n=32, control −75.7, no unit) of the same compound?
The value was −77.8.

And the “voltage for half inactivation” value ([7]; 20 μM dmLSB, n=32, control −75.7±0.61 mV)?
The value was −77.8±1.05 mV.

And the “k of steady-state inactivation fit” value ([7]; 20 μM dmLSB, control 10.20)?
The value was 9.99.

And the “amplitude of the slow component (AS), of the peak INa” value ([7]; at −20 mV, 10 μM dmLSB, bi-exponential fit, n=4)?
Its value is 22.1±1.02%.

What about the “time to maximal effect at each concentration” value ([7]; bath application) of the same compound?
The value was “ca. 150 seconds”.

And the Hill coefficient ([7]; dose-response of ISlow relative to peak INa)?
Its Hill coefficient is 1.02.

What about the “mean voltage for half-maximal activation” value ([7]; in the presence of 10 μM dmLSB, low [Na+] 10 mM, n=4, control −42.35±1.1) of the same compound?
The value was −37.28±0.8.

What about the EC50 ([7]; test pulse −20 mV, Hill fit, read-out: EC50, relative amplitude of slow component (ISlow) to peak INa) of the same compound?
Its EC50 is 21.1 µM and 20 µM.

And the “shift of voltage-dependence of activation (activation curve)” value ([7]; to the depolarised (right) direction, 10 μM dmLSB)?
The value was 5 mV.

What about the “reversibility of effect on INa” value ([7]; wash-out) of the same compound?
Its value is “reversible; also recorded: completely reversed after the wash-out”.

With `CC1(C)C(C(=O)OC(C#N)c2cccc(Oc3ccccc3)c2)C1(C)C` (stereo not shown) [fenpropathrin] as the compound, how does the “activation and inactivation curves of INa (literature)” value [1] read?
The value was “leftward shifts”.
